Assay [1] has as its system MSSA (ATCC 29213 and ATCC 6538). The assay is described as follows: MIC by broth microdilution (CLSI) against MSSA. The settings on record: two strains of MSSA. The assay is classed as cell-based, Staphylococcus aureus. On the procedure: (§1) The MICs were determined by the broth microdilution method by following Clinical and Laboratory Standards Institute (CLSI) guidelines
(§2) Spectroscopic characterization and X-ray structural determination unequivocally confirmed the identities of all the five new compositions of matter, that is compounds denoted as 6a through 6e.
For orientation: Dilution methods test growth across graded concentrations, often in twofold steps.

Assay [2] relates to biofilm formed by MRSA (ATCC BAA-44). The experiment in a line: Biofilm inhibition assay. The settings on record: 24 h. The assay is classed as cell-based, Staphylococcus aureus. On the procedure:
FIG. 6 is a chart showing the effect of 6c on the inhibition of biofilm formed by MRSA (ATCC BAA-44). Percentage of viable bacteria in the biofilm formed by MRSA in response to the treatment of Lawsone-derivatives (6a, 6b, 6c, 6d, and 6e) at varying concentrations (0-30 μM) (mean±s·d, n=3 independent experiments);
By observing the antibacterial efficacy of 6c against planktonic phase of MRSA, we next examined whether 6c could be effective against biofilm phase of MRSA. For this, the biofilm inhibition assay was performed using the established procedure. […] For the quantification of biofilm mass, the solutions in the plate with biofilm were replaced with a 100 μL solution containing 0.5% of crystal violet and incubated for 30 min at room temperature in the dark. […] The absorbance of the biofilm was measured at 595 nm using a microplate reader and the results were expressed as percentage changes with respect to the control (without compounds). For the quantification of the number of viable bacteria in the biofilm, the biofilms were gently destroyed and plated on TSA after serial dilutions of each suspension. The number of viable bacteria in the sample was obtained using agar plate counting method as described above and results were expressed as percentage changes with respect to the control.

The test system of assay [3] is MRSA (ATCC BAA-44 and ATCC BAA-1717). The assay is described as follows: microbe, parasite or virus in culture. The class given is cell-based, Staphylococcus aureus. On the procedure:
as §1, §2

Assay [4] relates to vancomycin-intermediate and daptomycin non-susceptible strain of MRSA (ATCC 700699). The experiment in a line: MIC by broth microdilution (CLSI) against vancomycin-intermediate, daptomycin non-susceptible MRSA. The class given is cell-based. As to conditions: Staphylococcus aureus, ATCC 700699 / MRSA / VISA. On the procedure:
as §1, §2

For assay [5], the system named is MRSA (ATCC BAA-44). The assay is described as follows: Local wound infection model, topical treatment. As to conditions: single topical dose 80 μg per wound at day 1 post-infection, CFU at day 2. The class given is in vivo, mice (C57BL/6). On the procedure:
FIG. 7 is a chart showing the effect of the treatment of 6c or vancomycin (via topical treatment, single dose at 80 μg per wound) on the bacterial burden in wounds of mice (C57BL/6 mice, male, 8-12 weeks old) infected by MRSA at day 2 post-wounding (mean±s·d, n=3 mice per group). The CFU counts from homogenized tissue collected from each mouse was run in duplicates. *: p<0.05 vs control;
(§3) To validate the in vivo antibacterial efficacy, we conducted the studies of treating the infections of local wound infection as well as non-lethal systemic infection induced by MRSA. For local infection, a full-thickness, circular wound was generated on the dorsal surface of each mouse (C57BL/6) using a 6-mm sterile biopsy punch after the mouse was anesthetized, followed by inoculating with 1×10^6 CFU MRSA (ATCC BAA-44) in the wounded skin at day 0 and then a defined amount of 6c or vancomycin (80 μg in 40 μL sterile saline per wound) was topically applied once to the wounds of mice at day 1 post-infection. The CFU number of viable bacteria in the wound was quantified at day 2 post-infection. […] The CFU number of viable bacteria was counted at day 2 post-infection from major organs including lung, kidney, spleen, liver, and peritoneal tissues. […]

In assay [6] the test system is MRSA (ATCC BAA-44). The assay is described as follows: Checkerboard assay of 6c with oxacillin. The assay is classed as cell-based, Staphylococcus aureus. The settings on record: 6c combined with oxacillin. On the procedure: MIC of oxacillin in the presence of 0.6 μg/mL of 6c. ^bMIC of 6c in the presence of 4 μg/mL of oxacillin. The MICs were determined by the broth microdilution method by following Clinical and Laboratory Standards Institute (CLSI) guidelines.
The checkerboard assay was performed in a 96-well plate using the established method. Specifically, the antibiotic oxacillin was 2-fold serially diluted along the row-axis and 6c was 2-fold serially diluted along the column-axis to create a matrix in which each well consists of a combination of both at different concentrations. Each well was inoculated with MRSA (ATCC BAA-44) to yield approximately 5×10^5 CFU/mL in a 100-μL final volume, incubated for 20 h at 37° C. and examined for visibility to determine the MIC. Dividing the MIC of 6c in the presence of antibiotic by the MIC of 6c alone was used to calculate the fractional inhibitory concentration (FIC) of 6c. Similarly, dividing the MIC of antibiotic in the presence of 6c by the MIC of the antibiotic alone was used to calculate the fractional inhibitory concentration (FIC) of the antibiotic. The FIC index was calculated by the summation of both FIC values. The FIC index was interpreted as synergistic, additive, or antagonistic for values of x≤0.5, 0.5<x<4, or ≥4, respectively.

The next assay concerns MRSA^vanR. The experiment in a line: MIC against vancomycin-resistant mutant MRSA from day 56 passage (cross-resistance). The assay is classed as cell-based. As to conditions: Staphylococcus aureus. On the procedure:
(§4) Typical clinical antibiotics can readily produce genetic mutants when used to treat the same bacterial over and over again, which is the major cause of antibiotic drug resistance in many pathogenic bacteria these days and of emergence of superbugs. To test if 6c can develop drug resistance in either MSSA (ATCC 29213) or MRSA (ATCC BAA-44), we performed sequential passaging studies with 6c. Briefly, the MIC values for S. aureus strains to be tested were determined first. Then, cells grown in the initial MIC dose of the compound or antibiotics from the previous passage were once again harvested after 24-h incubation period and assayed for a new MIC. The process was repeated for 56 passages against MRSA (ATCC BAA-44).

Another assay concerns MRSA. The assay is described as follows: Non-lethal systemic infection model, i.p. treatment. The settings on record: single dose 15 mg/kg i.p. at day 1 post-infection, CFU at day 2; p<0.05. The class given is in vivo, mice (C57BL/6).
Excerpt: FIG. 8 is a chart showing the effect of the treatment of 6c (via i.p injection, […]) on the bacterial burden in lung (b), spleen (c), kidney (d), liver (e), and peritoneal (f) tissues of mice (C57BL/6 mice, male, 8-12 weeks old) infected by MRSA (mean±s·d, n=8 mice per group). The CFU counts from homogenized tissue collected from each mouse was run in duplicates. *: p<0.05, **: p<0.01, and ***: p<0.001.
as §3

The next assay concerns MSSA (ATCC 29213). The assay is described as follows: Sequential passaging drug resistance development study in MSSA. The assay is classed as cell-based, Staphylococcus aureus. As to conditions: MSSA ATCC 29213, sequential passaging, vs vancomycin and ciprofloxacin.
Excerpt: FIG. 5 is a chart showing the drug resistance development of 6c in comparison with vancomycin and ciprofloxacin in MSSA (ATCC SA 29213);
as §4

For assay [7], the system named is MRSA (ATCC BAA-44). The assay is described as follows: Sequential passaging drug resistance development study in MRSA. The assay is classed as cell-based, Staphylococcus aureus. As to conditions: for MIC: Staphylococcus aureus, read-out: initial MIC.
Excerpt: FIG. 4 is a chart showing the drug resistance development of 6c in comparison with vancomycin and ofloxacin in MRSA (ATCC BAA-44);
as §4

In another assay the test system is MRSA^oflR. The experiment in a line: MIC against ofloxacin-resistant mutant MRSA from day 56 passage (cross-resistance). The assay is classed as cell-based. The settings on record: Staphylococcus aureus. On the procedure: as §4
Setting [8] is: at 56 passages (end of measurements).

SMILES strings stand for the structures. ≈ marks a conversion by molar mass, not a printed value.

In the case of `CCCCc1ccc(CC2=C(O)C(=O)c3ccccc3C2=O)cc1` [6c, 2-[(4-butylphenyl)methyl]-3-hydroxy-[1,4]naphthoquinone], the “antimicrobial activity (MIC) compared with ofloxacin and ciprofloxacin” value in assay [1] is recorded as “comparable”. The entries for the “suppression of biofilm formation” value in [2] (dose of 1×MIC (5 μM or 1.5 μg/mL)) and in assay [2] (dose of 3×MIC (15 μM or 4.5 μg/mL)) were 40% and 90%, respectively. In addition, the MIC in assay [3] (Staphylococcus aureus) is 1.25 to 2.5 µg/mL (≈ 3.9 to 7.8 µM); in assay [4], 1.25 to 2.5 µg/mL (≈ 3.9 to 7.8 µM); against MRSA^vanR, 5 µg/mL (≈ 15.6 µM); in the assay with MRSA (ATCC BAA-44) [7], 1.25 µg/mL (≈ 3.9 µM); with MRSA^oflR, 1.25 µg/mL (≈ 3.9 µM). Moreover, the “reduction of MRSA numbers (CFU) in the wound vs control” value in the assay with MRSA (ATCC BAA-44) [5] is listed as 60%. In addition, in the assay with MRSA (ATCC BAA-44) [6], the FIC index interpretation result is reported as “synergistic (x≤0.5)”. Besides, the FIC with MRSA (ATCC BAA-44) [6] (MRSA ATCC BAA-44, 20 h) is recorded as 0.31. The “bacterial burdens in kidney, liver, and peritoneal tissues vs vehicle control” value with MRSA is reported as “significantly reduced”. For the same compound, the drug resistance profile entry in the assay on MSSA (ATCC 29213) is listed as “improved drug resistance profile”. Further, the “increase of MIC” value in the assay on MRSA (ATCC BAA-44) [7] (setting [8]) stood at 4 fold. The “change of MIC” value with MRSA (ATCC BAA-44) [7] (up to 33 passages) was “largely unchanged”.
The compound `CCCCCCCCCC(=O)N[C@@H](Cc1c[nH]c2ccccc12)C(=O)N[C@H](CC(N)=O)C(=O)N[C@@H](CC(=O)O)C(=O)N[C@@H]1C(=O)NCC(=O)N[C@@H](CCCN)C(=O)N[C@@H](CC(=O)O)C(=O)N[C@H](C)C(=O)N[C@@H](CC(=O)O)C(=O)NCC(=O)N[C@H](CO)C(=O)N[C@@H]([C@H](C)CC(=O)O)C(=O)N[C@@H](CC(=O)c2ccccc2N)C(=O)O[C@@H]1C` [daptomycin] yielded an MIC in [3] (MRSA ATCC BAA-44 and ATCC BAA-1717, broth microdilution) of approximately 1 µg/mL (≈ 0.617 µM).
On to `CC1COc2c(N3CCN(C)CC3)c(F)cc3c(=O)c(C(=O)O)cn1c23` (stereo not shown) [ofloxacin], for which the MIC in the assay on MRSA (ATCC BAA-44) [7] turned out to be 8 µg/mL (≈ 22.1 µM). Also, the “increase of MIC” value in the assay with MRSA (ATCC BAA-44) [7] (after 5 passages) was 4 fold; in the assay with MRSA (ATCC BAA-44) [7] (at 35 passages), 32 fold; in the assay on MRSA (ATCC BAA-44) [7] (setting [8]), 64 fold.
Regarding `CN[C@H](CC(C)C)C(=O)N[C@H]1C(=O)N[C@@H](CC(N)=O)C(=O)N[C@H]2C(=O)N[C@H]3C(=O)N[C@H](C(=O)N[C@H](C(=O)O)c4cc(O)cc(O)c4-c4cc3ccc4O)[C@H](O)c3ccc(c(Cl)c3)Oc3cc2cc(c3O[C@@H]2O[C@H](CO)[C@@H](O)[C@H](O)[C@H]2O[C@H]2C[C@](C)(N)[C@H](O)[C@H](C)O2)Oc2ccc(cc2Cl)[C@H]1O` [vancomycin], the figures for the MIC (in assay [3] (Staphylococcus aureus); in the assay with MRSA (ATCC BAA-44) [7]) were approximately 1 µg/mL (≈ 0.69 µM) and 1 µg/mL (≈ 0.69 µM), respectively. The “reduction of MRSA numbers (CFU) in the wound vs control” value in the assay on MRSA (ATCC BAA-44) [5] is reported as approximately 50%. For the same compound, the “increase of MIC” value worked out at 128 fold in the assay with MRSA (ATCC BAA-44) [7] (setting [8]) and 4 fold with MRSA (ATCC BAA-44) [7] (by 51 passages).
